Measurements taken from the supplement of paper PMC10307832.

Assays:
Experiment in all cases: relative viability (nuclei count vs DMSO), 5 days (fraction); higher = more cells survive
[1] = compound: C1CNCCC1C2=CC(=NN2)C3=CC=NC=C3 + CS(=O)(=O)CCNCc1ccc(-c2ccc3ncnc(Nc4ccc(OCc5cccc(F)c5)c(Cl)c4)c3c2)o1 [Lapatinib] (partner 2 µM)
How it was run: (§1)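 Lung cancer cell lines were seeded in 1536-well plates and dosed by pin tool the next day, with either a single drug or a fixed anchor-drug dose combined with five library-drug doses (not always all listed) spaced in √10 steps. Five days later, one step fixed the cells and stained their nuclei (final 0.05% Triton X-100, 1% formaldehyde, 1 ug/ml Hoechst), and nuclei were counted on 4× images. Relative viability is the nuclei count in treated wells divided by the count in vehicle wells, and each value is the median of duplicate plates.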

[2] = compound: O[C@H]1CC[C@H](Nc2ncc3nc(Nc4c(F)cc(F)cc4F)n([C@H]4CCOC4)c3n2)CC1 [Tanzisertib] + CC(=O)Nc1cccc(-n2c(=O)n(C3CC3)c(=O)c3c(Nc4ccc(I)cc4F)n(C)c(=O)c(C)c32)c1 [Trametinib] (partner 0.02 µM)
How it was run: as §1

[3] = compound: O[C@H]1CC[C@H](Nc2ncc3nc(Nc4c(F)cc(F)cc4F)n([C@H]4CCOC4)c3n2)CC1 [Tanzisertib] + C[C@@H](Oc1cc(-c2cnn(C3CCNCC3)c2)cnc1N)c1c(Cl)ccc(F)c1Cl [Crizotinib] (partner 1 µM)
How it was run: as §1

[4] = compound: O[C@H]1CC[C@H](Nc2ncc3nc(Nc4c(F)cc(F)cc4F)n([C@H]4CCOC4)c3n2)CC1 [Tanzisertib] + CC(=O)c1c(C)c2cnc(Nc3ccc(N4CCNCC4)cn3)nc2n(C2CCCC2)c1=O [Palbociclib] (partner 0.5 µM)
How it was run: as §1

Cell Line | relative viability ([1]; first compound 0.08 µM) | relative viability ([1]; first compound 0.8 µM) | relative viability ([1]; first compound 2.53 µM) | relative viability ([1]; first compound 8 µM) | relative viability ([2]; first compound 0.08 µM) | relative viability ([2]; first compound 0.253 µM) | relative viability ([2]; first compound 0.8 µM) | relative viability ([2]; first compound 2.53 µM) | relative viability ([2]; first compound 8 µM) | relative viability ([3]; first compound 0.08 µM) | relative viability ([3]; first compound 0.253 µM) | relative viability ([3]; first compound 0.8 µM) | relative viability ([3]; first compound 2.53 µM) | relative viability ([3]; first compound 8 µM) | relative viability ([4]; first compound 0.08 µM) | relative viability ([4]; first compound 0.253 µM) | relative viability ([4]; first compound 0.8 µM) | relative viability ([4]; first compound 2.53 µM) | relative viability ([4]; first compound 8 µM)
NCI-H1944 | 0.76 | 0.775 | 0.819 | 0.801 | 0.455 | 0.422 | 0.435 | 0.343 | 0.403 | 1.23 | 1.03 | 1.11 | 1.14 | 0.949 | 0.322 | 0.343 | 0.324 | 0.339 | 0.295
LK-2 | 0.768 | 0.791 | 1.06 | 0.83 | 0.916 | 0.76 | 0.816 | 0.694 | 0.866 | 0.233 | 0.271 | 0.232 | 0.244 | 0.235 | 0.526 | 0.618 | 0.798 | 0.659 | 0.749
HCC-15 | 0.849 | 0.953 | 0.871 | 0.823 | 0.406 | 0.364 | 0.414 | 0.36 | 0.342 | 0.877 | 0.811 | 0.88 | 0.818 | 0.872 | 0.794 | 0.73 | 0.737 | 0.752 | 0.713
NCI-H727 | 0.717 | 0.847 | 1.01 | 0.981 | 0.38 | 0.391 | 0.387 | 0.347 | 0.352 | 0.797 | 0.853 | 0.787 | 1.02 | 0.832 | 0.74 | 0.673 | 0.614 | 0.676 | 0.626
HOP-62 | 1.09 | 1.17 | 1.1 | 1.12 | 0.389 | 0.341 | 0.435 | 0.412 | 0.346 | 0.945 | 0.964 | 1 | 1.05 | 0.824 | 0.411 | 0.451 | 0.464 | 0.491 | 0.525
NCI-H3122 | 0.972 | 1.03 | 1.04 | 1.04 | 0.262 | 0.201 | 0.273 | 0.245 | 0.237 | 0.302 | 0.306 | 0.288 | 0.292 | 0.293 | 0.23 | 0.187 | 0.213 | 0.159 | 0.206
NCI-H647 | 1.06 | 1.26 | 1.15 | 1.01 | 0.702 | 0.47 | 0.524 | 0.528 | 0.418 | 1.12 | 0.975 | 1.09 | 1.14 | 1.01 | 0.364 | 0.506 | 0.381 | 0.427 | 0.439
NCI-H650 | 0.966 | 0.773 | 1.11 | 0.951 | 0.975 | 0.946 | 1.06 | 0.983 | 0.874 | 0.725 | 0.686 | 0.712 | 0.881 | 0.636 | 0.341 | 0.342 | 0.302 | 0.33 | 0.325
EKVX | 0.211 | 0.184 | 0.208 | 0.208 | 0.487 | 0.301 | 0.368 | 0.347 | 0.295 | 0.895 | 0.867 | 0.967 | 0.898 | 0.853 | 0.455 | 0.388 | 0.363 | 0.414 | 0.355
NCI-H460 | 0.68 | 1.4 | 1.11 | 1.03 | 0.177 | 0.11 | 0.2 | 0.139 | 0.0888 | 1.06 | 0.897 | 0.978 | 0.923 | 0.791 | 0.199 | 0.193 | 0.113 | 0.161 | 0.13
LCLC-97TM1 | 1.05 | 1.39 | 1.59 | 1.04 | 0.236 | 0.227 | 0.234 | 0.172 | 0.172 |  | 0.331 | 0.417 | 0.262 | 0.427 | 0.222 | 0.243 | 0.215 | 0.204 | 0.229
COR-L23 | 0.989 | 1.3 | 0.98 | 1.01 | 0.717 | 0.627 | 0.7 | 0.616 | 0.547 | 0.861 | 0.669 | 0.638 | 0.701 | 0.709 | 0.325 | 0.331 | 0.336 | 0.275 | 0.298
NCI-H1355 | 0.971 | 0.948 | 1 | 0.935 | 0.455 | 0.433 | 0.47 | 0.417 | 0.464 | 1.12 | 1.11 | 1.06 | 1.08 | 1.06 | 0.435 | 0.398 | 0.4 | 0.438 | 0.382
NCI-H1666 | 0.522 | 0.739 | 0.845 | 0.625 | 0.842 | 0.839 | 0.968 | 0.862 | 0.908 | 0.902 | 0.934 | 1.09 | 1.03 | 1.09 | 0.675 | 0.729 | 0.65 | 0.688 | 0.639
